Experiments:
[1] = test system: leukaemia cells overexpressing TdT; design: method as in PMID 22390204; conditions: read-out: cytotoxicity activity IC50; cited from earlier work
human TdT = biological target: T1, human TdT (Homo sapiens, UniProt P04053); experiment: Terminal transferase assay, TdT; format: biochemical; conditions: human TdT, Mn2+ as cofactor; read-out: ID50 (µM) Mn2+
T1 construct: purchased Trevigen (Gaithersburg, MD)
Procedure: Recombinant full-length human DNA polymerase λ and β were generated and purified as described. After purification, the protein was >90% homogeneous, as judged by sodium dodecyl sulphate (SDS)−polyacrylamide gel electrophoresis (PAGE) and Coomassie staining. TdT was from Trevigen (Gaithersburg, MD).
Terminal Transferase Assay. DNA polymerase λ and TdT terminal transferase activities were assayed in a final volume of 25 μL containing 50 mM Tris-HCl (pH 7.0), 0.25 mg/mL BSA, 1 mM DTT, 0.2 μM ss 30mer (AAC)10 DNA oligonucleotide, 25 μM [3H]dNTPs (10 Ci/mmol) and 0.5 mM MnCl2 or 5 mM MgCl2 used as cofactors. Terminal transferase activity was monitored in the presence of 10% DMSO or in the presence of increasing amounts of inhibitors dissolved in DMSO. All reactions were incubated for 10 min at 37 °C and the DNA precipitated with 10% trichloroacetic acid. Insoluble radioactive material was determined by scintillation counting using Trilux beta-counter (PerkinElmer) as described.
Dose − response curves were generated by computer fitting of the data to the equation E(%) = Emax/(1 + I/ID50) where E(%) is the fraction of enzyme’s activity measured in the presence of the inhibitor, Emax is the activity in the absence of the inhibitor, I is the inhibitor concentration, and ID50 is the inhibitor concentration at which E(%) = 0.5 Emax. ID50 values were generated using GraphPad Prism 6.

human DNA polymerase λ [2] = biological target: T2, human DNA polymerase λ (Homo sapiens, UniProt Q9UGP5); design: method as in PMID 19329428; conditions: enzymatic assay; cited from earlier work
T2 construct: Recombinant full-length human DNA polymerase λ and β were generated and purified as described; made in house
T2 sequence (Q9UGP5 1-575): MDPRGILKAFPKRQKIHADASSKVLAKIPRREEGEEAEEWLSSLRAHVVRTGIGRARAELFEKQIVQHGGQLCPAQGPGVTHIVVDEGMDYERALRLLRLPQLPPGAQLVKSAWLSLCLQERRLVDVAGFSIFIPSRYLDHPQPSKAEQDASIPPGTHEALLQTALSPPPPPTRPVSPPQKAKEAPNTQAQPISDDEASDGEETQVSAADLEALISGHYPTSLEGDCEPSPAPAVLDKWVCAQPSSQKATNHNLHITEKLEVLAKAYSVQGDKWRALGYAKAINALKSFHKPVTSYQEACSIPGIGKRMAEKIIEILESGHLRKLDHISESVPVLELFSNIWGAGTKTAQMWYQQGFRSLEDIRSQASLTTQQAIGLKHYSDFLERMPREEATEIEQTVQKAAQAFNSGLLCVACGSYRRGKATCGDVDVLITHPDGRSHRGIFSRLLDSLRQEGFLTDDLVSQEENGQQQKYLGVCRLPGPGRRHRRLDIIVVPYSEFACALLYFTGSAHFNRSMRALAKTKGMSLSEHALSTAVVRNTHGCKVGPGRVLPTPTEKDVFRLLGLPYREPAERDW

human DNA polymerase λ [3] = biological target: T2, human DNA polymerase λ; design: method as in PMID 19329428; conditions: enzymatic assay; cited from earlier work; remark: listed apart in the source
human DNA polymerase β = biological target: T3, human DNA polymerase β (Homo sapiens, UniProt P06746); design: method as in PMID 19329428; conditions: enzymatic assay; cited from earlier work
T3 construct: Recombinant full-length human DNA polymerase λ and β were generated and purified as described; made in house

T1 sequence (P04053 whole entry): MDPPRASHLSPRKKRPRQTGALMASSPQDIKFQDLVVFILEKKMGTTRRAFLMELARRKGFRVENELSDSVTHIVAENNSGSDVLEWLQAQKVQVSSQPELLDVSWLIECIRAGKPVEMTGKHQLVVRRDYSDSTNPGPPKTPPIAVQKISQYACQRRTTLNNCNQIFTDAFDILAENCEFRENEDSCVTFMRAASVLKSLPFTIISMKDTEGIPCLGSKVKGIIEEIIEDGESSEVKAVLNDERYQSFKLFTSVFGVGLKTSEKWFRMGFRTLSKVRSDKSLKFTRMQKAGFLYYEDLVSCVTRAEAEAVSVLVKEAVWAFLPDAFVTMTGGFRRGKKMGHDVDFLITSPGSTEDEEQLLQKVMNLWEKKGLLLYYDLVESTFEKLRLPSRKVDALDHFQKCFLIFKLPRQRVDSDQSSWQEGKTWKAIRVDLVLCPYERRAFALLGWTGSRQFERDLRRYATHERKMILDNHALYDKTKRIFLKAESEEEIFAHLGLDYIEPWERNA

SMILES | IC50 [1] [µM] | IC50 (human TdT) [µM] | ID50 pol λ (TdT) (human DNA polymerase λ [2]) [µM] | ID50 pol λ (Pol) (human DNA polymerase λ [3]) [µM] | ID50 pol β (human DNA polymerase β) [µM]
C#Cc1cn([C@H]2C[C@H](O)[C@@H](COP(=O)(O)OP(=O)(O)OP(=O)(O)O)O2)c2ccc([N+](=O)[O-])cc12 [3-eth-5-NITP, 3-ethynyl-5-nitroindolyl-2′-deoxynucleoside triphosphate] | 3.9 |  |  |  | 
O=C(/C=C(\O)C(=O)O)/C=C/c1cc(C(=O)c2ccccc2)cn1Cc1ccccc1 [Compound 1] |  | 16 ± 0.5 | 20 ± 1 | > 40 | > 40
O=C(/C=C(\O)C(=O)O)/C=C/c1cc(C(=O)c2ccccc2)cn1Cc1ccc(F)cc1 [Compound 2] |  | 9.5 ± 0.1 | > 40 | > 40 | > 40
O=C(/C=C(\O)C(=O)O)/C=C/c1cc(C(=O)c2cccc(F)c2)c[nH]1 [Compound 3] |  | 0.78 ± 0.04 | 35 ± 1 | > 40 | > 40
O=C(/C=C(\O)C(=O)O)/C=C/c1cc(C(=O)c2ccc(F)cc2)c[nH]1 [Compound 4] |  | 0.58 ± 0.03 | 40 ± 1 | > 40 | > 40

Source: paper PMC12150604, “Exploring structure–activity relationships of pyrrolyl diketo acid derivatives as non-nucleoside inhibitors of terminal deoxynucleotidyl transferase enzyme” (Journal of Enzyme Inhibition and Medicinal Chemistry, 2025)
